The values below come from ChEMBL document CHEMBL5291721, “A preclinical secondary pharmacology resource illuminates target-adverse drug reaction associations of marketed drugs” (Nat Commun, 2023).

Assay [1] has as its target T1, Alpha-1A adrenergic receptor (Homo sapiens, UniProt P35348).
T1 sequence (P35348 whole entry): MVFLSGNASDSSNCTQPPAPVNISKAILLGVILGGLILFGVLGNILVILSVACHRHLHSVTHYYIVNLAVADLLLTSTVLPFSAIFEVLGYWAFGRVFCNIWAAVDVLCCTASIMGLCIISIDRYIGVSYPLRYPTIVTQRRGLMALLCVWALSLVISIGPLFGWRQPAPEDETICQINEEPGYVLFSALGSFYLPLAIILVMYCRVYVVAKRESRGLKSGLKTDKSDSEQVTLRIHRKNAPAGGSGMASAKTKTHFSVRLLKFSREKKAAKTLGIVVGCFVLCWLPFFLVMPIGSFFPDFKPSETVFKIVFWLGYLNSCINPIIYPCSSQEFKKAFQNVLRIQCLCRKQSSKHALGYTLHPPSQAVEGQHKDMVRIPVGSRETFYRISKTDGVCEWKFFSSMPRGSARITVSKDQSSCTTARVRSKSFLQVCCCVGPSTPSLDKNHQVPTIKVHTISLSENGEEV

The target in assay [2] is Histamine H2 receptor (Homo sapiens, UniProt P25021).
Assay [3] deals with T2, Corticotropin-releasing factor receptor 2 (Homo sapiens, UniProt Q13324).
T2 sequence (Q13324 whole entry): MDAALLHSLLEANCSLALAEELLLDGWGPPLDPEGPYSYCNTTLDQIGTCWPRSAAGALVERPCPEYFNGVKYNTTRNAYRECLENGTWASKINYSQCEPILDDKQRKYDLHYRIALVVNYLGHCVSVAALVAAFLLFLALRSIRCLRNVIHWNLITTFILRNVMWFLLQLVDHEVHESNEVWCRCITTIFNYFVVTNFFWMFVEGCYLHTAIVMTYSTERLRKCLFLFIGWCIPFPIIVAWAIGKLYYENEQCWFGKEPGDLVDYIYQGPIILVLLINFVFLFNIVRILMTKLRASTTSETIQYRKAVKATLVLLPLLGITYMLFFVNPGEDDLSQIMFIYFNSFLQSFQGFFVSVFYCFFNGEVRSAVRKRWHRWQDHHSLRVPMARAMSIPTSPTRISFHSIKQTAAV

Assay [4] has as its target T3, Progesterone receptor (Homo sapiens, UniProt P06401).
T3 sequence (P06401 whole entry): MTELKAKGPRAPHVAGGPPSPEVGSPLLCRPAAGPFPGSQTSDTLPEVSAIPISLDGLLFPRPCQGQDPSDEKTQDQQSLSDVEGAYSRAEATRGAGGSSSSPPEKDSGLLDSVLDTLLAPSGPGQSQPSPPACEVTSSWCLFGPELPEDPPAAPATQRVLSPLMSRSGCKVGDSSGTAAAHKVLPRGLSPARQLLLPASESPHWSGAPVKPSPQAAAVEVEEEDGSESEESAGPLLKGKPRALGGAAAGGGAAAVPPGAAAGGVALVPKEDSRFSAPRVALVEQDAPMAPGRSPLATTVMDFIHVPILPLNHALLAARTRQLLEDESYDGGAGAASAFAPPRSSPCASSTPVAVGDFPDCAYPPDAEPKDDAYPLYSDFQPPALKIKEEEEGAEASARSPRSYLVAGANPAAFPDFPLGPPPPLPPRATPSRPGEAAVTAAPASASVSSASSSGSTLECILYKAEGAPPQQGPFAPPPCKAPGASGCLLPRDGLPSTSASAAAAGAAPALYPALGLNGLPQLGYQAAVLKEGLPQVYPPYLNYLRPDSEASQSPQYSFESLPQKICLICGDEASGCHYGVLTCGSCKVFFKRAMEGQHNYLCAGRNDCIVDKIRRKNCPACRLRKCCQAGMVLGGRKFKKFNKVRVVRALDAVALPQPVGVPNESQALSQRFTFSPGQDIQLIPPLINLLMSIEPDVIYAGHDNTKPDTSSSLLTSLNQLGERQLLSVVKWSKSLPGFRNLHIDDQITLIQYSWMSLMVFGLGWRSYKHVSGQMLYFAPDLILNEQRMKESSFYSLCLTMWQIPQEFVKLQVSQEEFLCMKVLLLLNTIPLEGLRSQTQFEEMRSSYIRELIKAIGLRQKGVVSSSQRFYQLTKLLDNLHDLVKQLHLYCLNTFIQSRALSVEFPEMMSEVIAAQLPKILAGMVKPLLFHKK

In assay [5] the target is D(1A) dopamine receptor (Homo sapiens, UniProt P21728).
Assay [6] addresses Neurotensin receptor type 1 (Homo sapiens, UniProt P30989).
Assay [7] has as its target Substance-P receptor (Homo sapiens, UniProt P25103).
For assay [8], the target named is Sodium-dependent noradrenaline transporter (Homo sapiens, UniProt P23975).
Assay [9] addresses Sodium-dependent serotonin transporter (Homo sapiens, UniProt P31645).
Assay [10] has as its target T4, Equilibrative nucleoside transporter 1 (Homo sapiens, UniProt Q99808).
T4 sequence (Q99808 whole entry): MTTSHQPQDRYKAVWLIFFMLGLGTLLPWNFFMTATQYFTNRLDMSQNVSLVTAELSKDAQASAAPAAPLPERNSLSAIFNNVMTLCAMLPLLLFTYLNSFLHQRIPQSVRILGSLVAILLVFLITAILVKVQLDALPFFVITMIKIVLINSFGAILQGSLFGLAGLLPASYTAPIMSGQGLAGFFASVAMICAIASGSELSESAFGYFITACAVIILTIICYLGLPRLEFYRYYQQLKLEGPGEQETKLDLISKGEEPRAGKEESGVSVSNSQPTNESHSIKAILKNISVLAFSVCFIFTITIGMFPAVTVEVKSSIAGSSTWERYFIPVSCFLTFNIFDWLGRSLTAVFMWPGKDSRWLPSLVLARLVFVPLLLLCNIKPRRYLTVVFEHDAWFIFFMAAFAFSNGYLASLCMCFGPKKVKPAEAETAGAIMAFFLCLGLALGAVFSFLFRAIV
Note: assay procedure not described here.

Chain of Sodium-dependent noradrenaline transporter (P23975 whole entry): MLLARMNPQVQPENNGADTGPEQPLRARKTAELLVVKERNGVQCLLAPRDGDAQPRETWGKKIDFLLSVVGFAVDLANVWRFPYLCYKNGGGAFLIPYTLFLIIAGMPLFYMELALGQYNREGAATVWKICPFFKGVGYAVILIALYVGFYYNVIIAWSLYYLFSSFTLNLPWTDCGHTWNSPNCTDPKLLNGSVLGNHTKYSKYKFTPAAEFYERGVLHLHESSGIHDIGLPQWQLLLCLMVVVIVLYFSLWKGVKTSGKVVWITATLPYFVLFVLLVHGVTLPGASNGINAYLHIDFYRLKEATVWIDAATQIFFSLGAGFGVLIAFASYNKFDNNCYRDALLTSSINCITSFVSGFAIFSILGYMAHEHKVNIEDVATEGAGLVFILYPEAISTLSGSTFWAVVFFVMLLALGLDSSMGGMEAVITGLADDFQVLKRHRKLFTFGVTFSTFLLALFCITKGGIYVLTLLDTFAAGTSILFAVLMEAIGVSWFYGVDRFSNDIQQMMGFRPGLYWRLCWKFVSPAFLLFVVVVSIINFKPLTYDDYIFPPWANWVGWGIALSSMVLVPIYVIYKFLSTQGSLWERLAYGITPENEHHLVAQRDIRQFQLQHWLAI
Chain of Substance-P receptor (P25103 whole entry): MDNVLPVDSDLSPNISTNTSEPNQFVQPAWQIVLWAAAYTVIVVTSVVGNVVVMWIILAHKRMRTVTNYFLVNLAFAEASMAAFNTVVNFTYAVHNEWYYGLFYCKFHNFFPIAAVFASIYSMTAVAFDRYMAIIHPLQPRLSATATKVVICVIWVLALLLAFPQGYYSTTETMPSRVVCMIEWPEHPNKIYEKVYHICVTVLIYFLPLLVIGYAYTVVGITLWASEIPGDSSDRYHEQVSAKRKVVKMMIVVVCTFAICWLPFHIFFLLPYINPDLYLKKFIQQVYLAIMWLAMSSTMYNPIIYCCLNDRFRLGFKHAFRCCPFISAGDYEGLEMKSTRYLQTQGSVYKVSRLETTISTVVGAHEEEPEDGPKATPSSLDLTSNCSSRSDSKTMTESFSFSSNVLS
Chain of Histamine H2 receptor (P25021 whole entry): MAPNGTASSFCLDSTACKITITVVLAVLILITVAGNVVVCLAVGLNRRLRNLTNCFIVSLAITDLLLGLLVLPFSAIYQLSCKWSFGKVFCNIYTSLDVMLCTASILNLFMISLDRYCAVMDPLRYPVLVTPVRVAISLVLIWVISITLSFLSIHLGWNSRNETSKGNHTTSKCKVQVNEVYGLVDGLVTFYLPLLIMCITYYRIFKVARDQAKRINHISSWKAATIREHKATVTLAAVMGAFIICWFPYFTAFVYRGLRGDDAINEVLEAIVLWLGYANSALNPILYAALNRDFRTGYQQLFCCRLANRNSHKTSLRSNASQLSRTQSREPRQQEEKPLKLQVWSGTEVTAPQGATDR
Chain of D(1A) dopamine receptor (P21728 whole entry): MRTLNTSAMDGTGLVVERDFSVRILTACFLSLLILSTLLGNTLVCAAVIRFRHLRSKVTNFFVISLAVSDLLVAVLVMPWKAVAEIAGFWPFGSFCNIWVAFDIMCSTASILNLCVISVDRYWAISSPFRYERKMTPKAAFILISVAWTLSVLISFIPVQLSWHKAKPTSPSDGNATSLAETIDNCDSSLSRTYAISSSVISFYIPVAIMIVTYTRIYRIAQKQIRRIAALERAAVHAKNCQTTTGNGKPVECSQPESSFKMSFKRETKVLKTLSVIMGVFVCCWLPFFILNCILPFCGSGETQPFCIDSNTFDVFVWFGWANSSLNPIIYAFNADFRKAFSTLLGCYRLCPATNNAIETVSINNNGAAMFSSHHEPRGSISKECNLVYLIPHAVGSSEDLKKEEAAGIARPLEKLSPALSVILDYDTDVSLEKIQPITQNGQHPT
Chain of Sodium-dependent serotonin transporter (P31645 whole entry): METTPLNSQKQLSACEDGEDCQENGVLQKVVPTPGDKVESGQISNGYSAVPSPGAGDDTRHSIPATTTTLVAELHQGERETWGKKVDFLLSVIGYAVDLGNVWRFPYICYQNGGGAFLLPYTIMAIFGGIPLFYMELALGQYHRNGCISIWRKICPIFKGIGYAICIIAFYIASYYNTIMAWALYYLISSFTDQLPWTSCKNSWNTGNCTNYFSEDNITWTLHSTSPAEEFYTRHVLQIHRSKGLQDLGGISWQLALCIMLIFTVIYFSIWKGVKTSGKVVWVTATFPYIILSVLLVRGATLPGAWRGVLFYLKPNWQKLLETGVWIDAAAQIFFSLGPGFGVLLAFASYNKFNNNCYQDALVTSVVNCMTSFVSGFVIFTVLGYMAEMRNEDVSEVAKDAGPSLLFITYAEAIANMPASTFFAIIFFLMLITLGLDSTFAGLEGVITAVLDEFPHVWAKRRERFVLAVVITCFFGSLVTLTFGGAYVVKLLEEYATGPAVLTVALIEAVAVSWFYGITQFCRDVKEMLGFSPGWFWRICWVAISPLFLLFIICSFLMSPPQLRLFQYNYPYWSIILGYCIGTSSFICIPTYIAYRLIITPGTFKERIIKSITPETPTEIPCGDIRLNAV
Chain of Neurotensin receptor type 1 (P30989 whole entry): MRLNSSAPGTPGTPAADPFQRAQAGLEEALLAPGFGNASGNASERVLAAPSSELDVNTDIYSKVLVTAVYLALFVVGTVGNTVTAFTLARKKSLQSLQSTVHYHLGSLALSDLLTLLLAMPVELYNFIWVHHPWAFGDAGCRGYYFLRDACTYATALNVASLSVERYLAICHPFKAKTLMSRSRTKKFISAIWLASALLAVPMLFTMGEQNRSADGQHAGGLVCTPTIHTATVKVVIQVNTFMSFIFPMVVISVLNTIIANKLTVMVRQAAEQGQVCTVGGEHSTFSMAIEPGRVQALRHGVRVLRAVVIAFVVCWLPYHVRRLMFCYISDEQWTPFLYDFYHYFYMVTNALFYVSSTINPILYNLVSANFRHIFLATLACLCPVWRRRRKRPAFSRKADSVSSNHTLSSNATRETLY

By AC50 is commonly meant the concentration at which the activity in the assay is half-maximal. The low end stands for greater potency, the high end for weaker potency. Regarding `CCCCCCCC(=O)N[C@H](CN1CCCC1)[C@H](O)c1ccc2c(c1)OCCO2`, the AC50 in assay [1] was more than 30 µM.
For the compound `C[C@]1(COc2ccc(N3CCC(Oc4ccc(OC(F)(F)F)cc4)CC3)cc2)Cn2cc([N+](=O)[O-])nc2O1`, the AC50 is more than 10 µM in assay [2]; more than 30 µM in assay [3]; more than 30 µM in assay [4]; more than 10 µM in [5]; more than 30 µM in assay [6]; more than 10 µM in [7]. Also, the AC50 in assay [8] and in assay [9] was more than 10 µM in each case.
As for `C[C@]12CC[C@H](O)CC1=CC[C@@H]1[C@@H]2CC[C@]2(C)C(c3cccnc3)=CC[C@@H]12` [ABIRATERONE], the AC50 in assay [4], in assay [10], in [8] and in [9] was more than 30 µM each time.
As for `CC(=O)OCC[N+](C)(C)C` [ACETYLCHOLINE], the AC50 in assay [2] was more than 10 µM; in assay [3], more than 30 µM; in assay [4] it was more than 30 µM; in assay [5] it was more than 10 µM; in [6], more than 30 µM; in [10] it was more than 30 µM. In addition, the half-maximal activity concentration (AC50) in [7] was more than 10 µM; in assay [8], more than 30 µM; in assay [9], more than 30 µM.
For `CN(C)C(=O)Oc1cc(OC(=O)N(C)C)cc(C(O)CNC(C)(C)C)c1` (configuration not stated) [BAMBUTEROL], the AC50 in [10] and in assay [8] was more than 30 µM in each case.
On to `C[C@H]1C[C@H]2[C@@H]3CCC4=CC(=O)C=C[C@]4(C)[C@@]3(Cl)[C@@H](O)C[C@]2(C)[C@@]1(O)C(=O)CO` [BECLOMETHASONE], for which the AC50 in assay [2] is more than 10 µM; in assay [3] it was more than 30 µM; in [4], more than 30 µM; in [5], more than 10 µM; in assay [6], more than 30 µM; in [10] it was more than 30 µM. Moreover, the AC50 in assay [7] and in assay [8] was more than 10 µM in each case.
Consider `NS(=O)(=O)c1cc(C2(O)NC(=O)c3ccccc32)ccc1Cl` (configuration not stated) [CHLORTHALIDONE], for which the AC50 in assay [10] and in assay [8] was more than 10 µM each time.
As to `CC[C@H]1OC(=O)[C@H](C)[C@@H](O[C@H]2C[C@@](C)(OC)[C@@H](O)[C@H](C)O2)[C@H](C)[C@@H](O[C@@H]2O[C@H](C)C[C@H](N(C)C)[C@H]2O)[C@](C)(OC)C[C@@H](C)C(=O)[C@H](C)[C@@H](O)[C@]1(C)O` [CLARITHROMYCIN], the concentration at half-maximal activity (AC50) in assay [10] and in assay [8] was more than 30 µM throughout.
As to `C[C@@H]1CCC[C@H](C)N1NC(=O)c1ccc(Cl)c(S(N)(=O)=O)c1` [CLOPAMIDE], the AC50 in assay [10], in assay [8] and in assay [9] was more than 30 µM each time.
As to `COc1ccc2c(c1)[C@]13CCCC[C@@H]1[C@H](C2)N(C)CC3` [DEXTROMETHORPHAN], the AC50 in assay [2] is more than 10 µM; in assay [3], more than 30 µM; in [4] it was more than 30 µM; in assay [5], more than 10 µM; in assay [6], more than 30 µM; in [10] it was more than 30 µM. This compound returned an AC50 in assay [7] of 6.94 µM.
With `O=c1oc2ccccc2c(O)c1Cc1c(O)c2ccccc2oc1=O` [DICUMAROL], the half-maximal activity concentration (AC50) in assay [10] and in assay [8] was more than 10 µM in each case.
As for `CCn1cc(C(=O)O)c(=O)c2cc(F)c(N3CCNCC3)nc21` [ENOXACIN], the AC50 is more than 10 µM in assay [2]; more than 30 µM in assay [3]; more than 30 µM in assay [4]; more than 10 µM in assay [5]; more than 30 µM in [6]; more than 30 µM in assay [10]. Also, the AC50 in assay [7] and in assay [8] was more than 10 µM throughout.
For the compound `O=C(O)CSCC(=O)NC1CCSC1=O` (configuration not stated) [ERDOSTEINE], the AC50 in assay [10], in assay [8] and in assay [9] was more than 30 µM throughout.
As to `COc1cccc(N(C)C(=S)Oc2ccc3c(c2)CCCC3)n1` [LIRANAFTATE], the AC50 in assay [10], in assay [8] and in assay [9] was more than 30 µM each time.
As to `C#C[C@]1(O)CC[C@H]2[C@@H]3CCc4cc(OC)ccc4[C@H]3CC[C@@]21C` [MESTRANOL], the values for the AC50 in assay [10] and in assay [8] were more than 30 µM and 10.9 µM, respectively.
For `N=C(N)c1ccc2cc(OC(=O)c3ccc(N=C(N)N)cc3)ccc2c1` [NAFAMOSTAT], the AC50 in assay [9] worked out at 8.2 µM.
As to `CNC(=O)Oc1ccc2c(c1)[C@]1(C)CCN(C)[C@@H]1N2C` [PHYSOSTIGMINE], the AC50 in [10] and in assay [8] was more than 30 µM in each case.
As to `O=C(O)c1cc(O)c2c3nc4ccccc4oc-3cc(=O)c2n1` [PIRENOXINE], the AC50 in assay [10], in assay [8] and in assay [9] was more than 30 µM throughout.
Take `NS(=O)(=O)c1cc(C(=O)O)cc(N2CCCC2)c1Oc1ccccc1` [PIRETANIDE]: the AC50 in assay [8] was more than 30 µM; in [9], 0.92 µM.
In the case of `CNCCCC1c2ccccc2C=Cc2ccccc21` [PROTRIPTYLINE], in [10], the AC50 was more than 30 µM.
Take `COCCCOc1ccnc(C[S+]([O-])c2nc3ccccc3[nH]2)c1C` (configuration not stated) [RABEPRAZOLE]: the AC50 in assay [2] was more than 10 µM; in assay [3] it was more than 30 µM; in assay [4], more than 30 µM; in assay [5], more than 10 µM; in assay [6] it was more than 30 µM; in assay [10], more than 30 µM. Further, the AC50 in assay [7] and in assay [8] was more than 10 µM throughout.
Consider `CC(C)=CCOc1ccc(/C=C/C(=O)c2ccc(OCC=C(C)C)cc2OCC(=O)O)cc1` [SOFALCONE], for which the AC50 in [10] is more than 30 µM; in [8] it was 26 µM; in assay [9] it was more than 30 µM.
For `O=C(CCCN1CCC2(CC1)C(=O)NCN2c1ccccc1)c1ccc(F)cc1` [SPIPERONE], the AC50 in [9] came to 0.0086 µM.
With `CCSc1ccc2c(c1)N(CCCN1CCN(C)CC1)c1ccccc1S2` [THIETHYLPERAZINE], in assay [8], half-maximal activity (AC50) was put at 9.6 µM.
For the compound `CN(C)c1cc(NC(=O)CNC(C)(C)C)c(O)c2c1C[C@H]1C[C@H]3[C@H](N(C)C)C(O)=C(C(N)=O)C(=O)[C@@]3(O)C(O)=C1C2=O` [TIGECYCLINE], the AC50 in assay [10] was 39.5 µM; in [8] it was more than 30 µM; in assay [9], more than 30 µM.
For `OCCN1CCN(CC/C=C2/c3ccccc3Sc3ccc(Cl)cc32)CC1` [ZUCLOPENTHIXOL], the AC50 is more than 30 µM in [10], 17.4 µM in [8] and 8.4 µM in [9].
